Experimental findings from ChEMBL document CHEMBL5465560, “Selectivity Literature for EUbOPEN Chemogenomic Library” (2024) are described below.

As usually defined, the IC50 is the concentration that inhibits the measured activity by half. Read a low IC50 as greater potency.

Assay [1] has as its target Death-associated protein kinase 2 (Homo sapiens) (UniProt Q9UIK4). The assay is described as follows: Selectivity interaction (LanthaScreen Eu Kinase Binding Assay) EUB0001632a DAPK2. As to conditions: at 10 µM. In general terms: Time-resolved FRET reads energy transfer from a long-lived donor to a nearby acceptor.
For assay [2], the target named is Cyclin-dependent kinase 9 (Homo sapiens, UniProt P50750). The experiment in a line: Selectivity interaction (ActivX KiNativ screen (ex vivo kinase selectivity in human PBMCs)) EUB0001619a CDK9. As to conditions: PBMC, at 1 µM. Format: cell-based.
In assay [3] the target is T1, Serine/threonine-protein kinase 3 (Homo sapiens) (UniProt Q13188).
T1 sequence (whole entry): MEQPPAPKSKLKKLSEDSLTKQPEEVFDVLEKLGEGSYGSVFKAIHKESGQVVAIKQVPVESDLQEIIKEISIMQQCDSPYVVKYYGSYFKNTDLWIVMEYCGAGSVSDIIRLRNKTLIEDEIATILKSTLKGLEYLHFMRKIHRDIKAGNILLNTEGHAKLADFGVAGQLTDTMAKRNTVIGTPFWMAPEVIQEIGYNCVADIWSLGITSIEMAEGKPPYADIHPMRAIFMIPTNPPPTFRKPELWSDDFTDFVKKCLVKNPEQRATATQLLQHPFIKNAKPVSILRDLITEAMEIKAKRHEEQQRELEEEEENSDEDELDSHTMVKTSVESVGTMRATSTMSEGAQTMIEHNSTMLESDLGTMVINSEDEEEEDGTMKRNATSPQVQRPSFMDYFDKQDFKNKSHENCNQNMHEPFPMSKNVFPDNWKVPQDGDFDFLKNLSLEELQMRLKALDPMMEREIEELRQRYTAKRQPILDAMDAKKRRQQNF
The experiment in a line: (§1) Selectivity interaction (ActivX KiNativ screen (ex vivo kinase selectivity in human PBMCs)) EUB0001619a STK3. As to conditions: PBMC, at 1 µM. Format: cell-based.

Assay [4] deals with T1, Serine/threonine-protein kinase 3 (Homo sapiens). The assay is described as §1. The class given is cell-based. As to conditions: PBMC, at 1 µM. The source holds these as a separate data set.
For assay [5], the target named is Protein-tyrosine kinase 6 (Homo sapiens, UniProt Q13882). The assay is described as follows: Selectivity interaction (KinomeScan (DiscoverX)) EUB0000666a PTK6. The following applies: at 10 µM.
For assay [6], the target named is T2, Phosphorylase b kinase gamma catalytic chain, liver/testis isoform (Homo sapiens) (UniProt P15735).
T2 sequence (whole entry): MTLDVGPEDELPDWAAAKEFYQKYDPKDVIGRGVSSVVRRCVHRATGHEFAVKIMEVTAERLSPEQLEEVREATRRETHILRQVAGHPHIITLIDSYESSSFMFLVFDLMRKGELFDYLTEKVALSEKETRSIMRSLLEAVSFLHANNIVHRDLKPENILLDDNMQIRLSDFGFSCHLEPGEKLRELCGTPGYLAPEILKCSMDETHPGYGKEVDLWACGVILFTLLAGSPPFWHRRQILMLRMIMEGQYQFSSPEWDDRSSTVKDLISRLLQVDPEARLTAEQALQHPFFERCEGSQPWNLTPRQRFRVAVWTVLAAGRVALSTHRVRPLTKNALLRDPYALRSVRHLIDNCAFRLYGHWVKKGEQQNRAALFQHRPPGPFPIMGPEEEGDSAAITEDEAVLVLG
The assay is described as follows: Selectivity interaction (KinomeScan (DiscoverX)) EUB0000666a PHKG2. As to conditions: at 10 µM.

The target of assay [7] is Dual specificity protein kinase CLK4 (Homo sapiens, UniProt Q9HAZ1). The assay is described as follows: Selectivity interaction (Enzymatic assay) EUB0001550a CLK4.
For assay [8], the target named is Tyrosine-protein kinase Lck (Homo sapiens, UniProt P06239). The experiment in a line: Selectivity interaction (Radiometric kinase assay (using 10 uM ATP)) EUB0000601a LCK.
For assay [9], the target named is Hepatocyte growth factor receptor (Homo sapiens, UniProt P08581). The assay is described as follows: Selectivity interaction (Kinase panel (Invitrogen)) EUB0000639a MET. The following applies: at 200 nM.
Assay [10] concerns the target T3, Serine/threonine-protein kinase 4 (Homo sapiens) (UniProt Q13043).
T3 sequence (whole entry): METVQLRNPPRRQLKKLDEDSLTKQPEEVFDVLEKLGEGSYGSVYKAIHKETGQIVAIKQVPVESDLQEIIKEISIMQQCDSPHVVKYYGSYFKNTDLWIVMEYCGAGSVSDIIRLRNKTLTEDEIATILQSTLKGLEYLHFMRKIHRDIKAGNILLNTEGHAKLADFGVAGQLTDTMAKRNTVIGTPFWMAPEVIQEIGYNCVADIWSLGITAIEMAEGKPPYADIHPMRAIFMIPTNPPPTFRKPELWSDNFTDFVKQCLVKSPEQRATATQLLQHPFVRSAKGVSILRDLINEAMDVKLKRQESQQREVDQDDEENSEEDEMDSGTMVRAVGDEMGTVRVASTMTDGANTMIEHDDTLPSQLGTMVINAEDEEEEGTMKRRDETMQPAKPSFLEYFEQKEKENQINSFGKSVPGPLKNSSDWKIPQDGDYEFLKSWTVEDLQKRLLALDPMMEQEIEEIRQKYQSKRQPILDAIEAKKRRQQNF
The assay is described as follows: Selectivity interaction (Kinase panel (DSF assay)) EUB0001559a STK4. (In general: DSF heats the sample and reads unfolding from a dye or from intrinsic fluorescence.)

In assay [11] the target is Mitogen-activated protein kinase 7 (Homo sapiens) (UniProt Q13164). The assay is described as follows: Selectivity interaction (KinomeScan (DiscoverX)) EUB0001049a MAPK7. The following applies: at 1 µM.
The target of assay [12] is Serine/threonine-protein kinase NIM1 (Homo sapiens, UniProt Q8IY84). The assay is described as follows: Selectivity interaction (KinomeScan (DiscoverX)) EUB0000618a NIM1K. As to conditions: at 10 µM.
The target of assay [13] is Serine/threonine-protein kinase PLK2 (Homo sapiens, UniProt Q9NYY3). The assay is described as follows: Selectivity interaction (KinomeScan (DiscoverX)) EUB0000092b PLK2. As to conditions: at 10 µM.
The target in assay [14] is Maternal embryonic leucine zipper kinase (Homo sapiens) (UniProt Q14680). The assay is described as follows: Selectivity interaction (KinomeScan (DiscoverX)) EUB0001079a MELK. The following applies: at 1 µM.
The target of assay [15] is Mitogen-activated protein kinase 14 (Homo sapiens, UniProt Q16539). The assay is described as follows: Selectivity interaction (Kinase panel (KiNativ target engagement assay in Jurkat cells)) EUB0001635a MAPK14. The class given is cell-based. As to conditions: Selectivity number of off-targets 0.0, Selectivity number of targets 233.0, Source Knowledge https://www.sciencedirect.com/science/article/pii/S2451945619300674?via%3Dihub, at 1 µM.

Serine/threonine-protein kinase PLK2, sequence (Q9NYY3 whole entry, looked up): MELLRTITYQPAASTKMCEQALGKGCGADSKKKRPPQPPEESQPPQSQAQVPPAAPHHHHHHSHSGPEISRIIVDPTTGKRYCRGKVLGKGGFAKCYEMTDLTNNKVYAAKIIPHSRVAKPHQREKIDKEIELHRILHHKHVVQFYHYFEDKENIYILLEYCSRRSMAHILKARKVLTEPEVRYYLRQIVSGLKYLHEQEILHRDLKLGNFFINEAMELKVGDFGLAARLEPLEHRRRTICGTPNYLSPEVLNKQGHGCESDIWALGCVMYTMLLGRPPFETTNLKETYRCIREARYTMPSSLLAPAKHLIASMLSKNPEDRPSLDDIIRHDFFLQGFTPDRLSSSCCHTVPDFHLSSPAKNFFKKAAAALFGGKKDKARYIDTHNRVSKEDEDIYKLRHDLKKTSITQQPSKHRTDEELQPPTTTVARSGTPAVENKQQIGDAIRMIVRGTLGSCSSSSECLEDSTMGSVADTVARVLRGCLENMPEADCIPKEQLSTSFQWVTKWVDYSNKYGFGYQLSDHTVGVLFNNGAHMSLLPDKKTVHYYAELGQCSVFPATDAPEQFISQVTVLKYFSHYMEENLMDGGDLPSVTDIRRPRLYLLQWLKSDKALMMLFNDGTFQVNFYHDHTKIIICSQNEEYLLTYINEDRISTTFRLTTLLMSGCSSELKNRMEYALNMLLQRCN
Protein-tyrosine kinase 6, sequence (Q13882 whole entry, looked up, canonical isoform): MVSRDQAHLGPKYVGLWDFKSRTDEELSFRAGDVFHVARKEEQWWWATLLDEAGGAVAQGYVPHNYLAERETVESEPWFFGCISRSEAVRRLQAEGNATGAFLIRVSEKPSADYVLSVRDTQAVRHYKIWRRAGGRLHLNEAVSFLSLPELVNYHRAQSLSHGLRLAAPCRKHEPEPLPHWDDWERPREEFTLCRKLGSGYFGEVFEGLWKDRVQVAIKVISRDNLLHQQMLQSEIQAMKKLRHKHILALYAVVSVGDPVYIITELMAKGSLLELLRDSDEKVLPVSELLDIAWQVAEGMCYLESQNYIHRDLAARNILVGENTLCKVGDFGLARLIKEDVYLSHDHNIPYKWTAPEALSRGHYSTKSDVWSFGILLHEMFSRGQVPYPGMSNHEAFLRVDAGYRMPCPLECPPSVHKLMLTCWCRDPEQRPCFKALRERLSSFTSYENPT
Tyrosine-protein kinase Lck, sequence (P06239 whole entry): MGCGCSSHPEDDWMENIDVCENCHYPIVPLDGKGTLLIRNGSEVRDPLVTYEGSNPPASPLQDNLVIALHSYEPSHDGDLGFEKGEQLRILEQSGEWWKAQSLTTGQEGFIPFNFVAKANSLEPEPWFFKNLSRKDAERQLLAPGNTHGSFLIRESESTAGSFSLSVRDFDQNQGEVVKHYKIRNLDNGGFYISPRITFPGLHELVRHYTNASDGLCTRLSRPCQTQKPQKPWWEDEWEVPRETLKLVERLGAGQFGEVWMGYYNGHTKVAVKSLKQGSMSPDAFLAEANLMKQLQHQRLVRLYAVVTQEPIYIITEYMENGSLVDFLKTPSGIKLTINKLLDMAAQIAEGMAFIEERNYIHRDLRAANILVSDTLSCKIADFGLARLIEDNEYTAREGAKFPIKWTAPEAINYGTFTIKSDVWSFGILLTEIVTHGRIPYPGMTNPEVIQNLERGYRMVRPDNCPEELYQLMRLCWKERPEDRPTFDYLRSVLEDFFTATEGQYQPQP
Mitogen-activated protein kinase 7 (Homo sapiens), sequence (Q13164 2-816 limits assumed): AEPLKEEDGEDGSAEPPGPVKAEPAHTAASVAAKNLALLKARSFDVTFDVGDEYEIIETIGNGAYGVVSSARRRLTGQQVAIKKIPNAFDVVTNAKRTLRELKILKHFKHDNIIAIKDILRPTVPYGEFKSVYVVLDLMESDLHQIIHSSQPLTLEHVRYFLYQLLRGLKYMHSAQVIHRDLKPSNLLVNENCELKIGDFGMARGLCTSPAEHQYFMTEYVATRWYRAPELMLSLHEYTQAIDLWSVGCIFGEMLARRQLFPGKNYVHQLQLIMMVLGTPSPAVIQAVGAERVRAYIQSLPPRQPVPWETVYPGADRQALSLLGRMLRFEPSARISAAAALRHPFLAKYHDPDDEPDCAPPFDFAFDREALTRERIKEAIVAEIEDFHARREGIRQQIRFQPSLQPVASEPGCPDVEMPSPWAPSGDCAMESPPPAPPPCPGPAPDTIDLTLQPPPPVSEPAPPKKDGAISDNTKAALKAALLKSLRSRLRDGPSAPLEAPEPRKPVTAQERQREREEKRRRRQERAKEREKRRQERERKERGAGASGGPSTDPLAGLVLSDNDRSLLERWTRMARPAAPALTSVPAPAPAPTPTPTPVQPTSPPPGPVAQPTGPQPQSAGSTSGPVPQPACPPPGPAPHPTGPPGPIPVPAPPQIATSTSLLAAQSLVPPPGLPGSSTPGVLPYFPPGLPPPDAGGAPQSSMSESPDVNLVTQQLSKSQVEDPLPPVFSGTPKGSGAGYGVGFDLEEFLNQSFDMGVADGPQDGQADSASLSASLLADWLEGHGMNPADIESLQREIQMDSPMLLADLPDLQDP
Cyclin-dependent kinase 9, sequence (P50750 whole entry): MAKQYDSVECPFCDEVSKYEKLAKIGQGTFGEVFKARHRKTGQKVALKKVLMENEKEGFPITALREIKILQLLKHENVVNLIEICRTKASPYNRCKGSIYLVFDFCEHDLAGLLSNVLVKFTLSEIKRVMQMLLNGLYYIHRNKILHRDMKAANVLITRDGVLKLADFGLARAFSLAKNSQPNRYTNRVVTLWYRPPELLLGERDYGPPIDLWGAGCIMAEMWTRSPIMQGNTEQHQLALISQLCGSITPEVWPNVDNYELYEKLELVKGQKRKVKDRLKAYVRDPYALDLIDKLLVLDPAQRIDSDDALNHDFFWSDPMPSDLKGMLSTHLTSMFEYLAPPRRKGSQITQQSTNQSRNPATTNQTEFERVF
Hepatocyte growth factor receptor, sequence (P08581 whole entry): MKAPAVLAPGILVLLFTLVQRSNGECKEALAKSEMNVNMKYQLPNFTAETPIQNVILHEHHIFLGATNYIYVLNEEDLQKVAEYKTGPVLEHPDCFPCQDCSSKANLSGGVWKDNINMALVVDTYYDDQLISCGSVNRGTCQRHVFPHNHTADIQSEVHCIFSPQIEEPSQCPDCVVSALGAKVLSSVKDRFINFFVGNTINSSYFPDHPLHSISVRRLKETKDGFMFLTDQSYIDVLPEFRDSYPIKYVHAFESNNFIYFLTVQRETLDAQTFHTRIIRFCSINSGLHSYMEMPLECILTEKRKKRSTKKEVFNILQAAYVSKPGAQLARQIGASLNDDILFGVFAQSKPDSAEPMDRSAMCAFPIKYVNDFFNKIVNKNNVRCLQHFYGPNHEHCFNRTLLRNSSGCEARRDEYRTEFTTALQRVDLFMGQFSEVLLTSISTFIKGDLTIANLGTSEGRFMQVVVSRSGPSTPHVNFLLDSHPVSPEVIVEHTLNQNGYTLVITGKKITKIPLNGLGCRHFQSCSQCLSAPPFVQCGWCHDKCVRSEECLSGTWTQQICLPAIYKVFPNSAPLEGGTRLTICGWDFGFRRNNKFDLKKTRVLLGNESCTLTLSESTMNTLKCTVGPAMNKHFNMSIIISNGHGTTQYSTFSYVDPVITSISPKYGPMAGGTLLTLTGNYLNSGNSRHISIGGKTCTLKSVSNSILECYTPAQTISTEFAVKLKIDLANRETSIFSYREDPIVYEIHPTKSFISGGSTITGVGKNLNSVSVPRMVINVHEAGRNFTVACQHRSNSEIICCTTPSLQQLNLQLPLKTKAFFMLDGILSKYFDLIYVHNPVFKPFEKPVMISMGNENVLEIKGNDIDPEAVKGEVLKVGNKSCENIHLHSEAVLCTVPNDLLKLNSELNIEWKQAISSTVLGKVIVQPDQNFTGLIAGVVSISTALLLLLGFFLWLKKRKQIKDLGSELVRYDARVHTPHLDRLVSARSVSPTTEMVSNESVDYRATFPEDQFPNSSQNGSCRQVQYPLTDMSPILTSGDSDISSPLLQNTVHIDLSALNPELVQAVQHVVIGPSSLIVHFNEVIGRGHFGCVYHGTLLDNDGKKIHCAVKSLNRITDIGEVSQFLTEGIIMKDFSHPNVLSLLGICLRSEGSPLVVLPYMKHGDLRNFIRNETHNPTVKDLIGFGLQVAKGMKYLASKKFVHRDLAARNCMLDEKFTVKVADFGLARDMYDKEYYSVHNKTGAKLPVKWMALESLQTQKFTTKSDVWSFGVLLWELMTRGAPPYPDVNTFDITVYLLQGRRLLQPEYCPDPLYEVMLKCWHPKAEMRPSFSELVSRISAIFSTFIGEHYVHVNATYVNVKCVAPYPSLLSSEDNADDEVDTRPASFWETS
Dual specificity protein kinase CLK4, sequence (Q9HAZ1 whole entry): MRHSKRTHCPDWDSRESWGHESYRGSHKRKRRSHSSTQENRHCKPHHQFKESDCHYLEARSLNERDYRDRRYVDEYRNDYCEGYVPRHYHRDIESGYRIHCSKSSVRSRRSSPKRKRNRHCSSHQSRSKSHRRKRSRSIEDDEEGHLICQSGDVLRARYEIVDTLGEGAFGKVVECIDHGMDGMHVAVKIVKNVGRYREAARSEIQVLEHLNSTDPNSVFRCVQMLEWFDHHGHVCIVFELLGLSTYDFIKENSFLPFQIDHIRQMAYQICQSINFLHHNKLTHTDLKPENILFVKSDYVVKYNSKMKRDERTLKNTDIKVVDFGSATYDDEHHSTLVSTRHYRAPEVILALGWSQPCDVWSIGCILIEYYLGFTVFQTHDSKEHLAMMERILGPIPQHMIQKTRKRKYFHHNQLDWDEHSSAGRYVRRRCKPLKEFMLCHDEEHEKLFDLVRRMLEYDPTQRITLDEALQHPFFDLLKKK

With `Cn1cc(-n2cnc3c(NCc4nc5cc(Cl)c(Cl)cc5[nH]4)nc(N4CCOCC4)nc32)cn1`, in [1], the % of inhibition is -5.23%.

Consider `N#Cc1cccc(-c2c[nH]c3ncnc(N4CCOCC4)c23)c1`, for which the % of inhibition in [2] came out at 22%; in assay [3], 69%; in assay [4], 83%.

As to `O=C(NOC[C@H](O)CO)c1ccc(F)c(F)c1Nc1ccc(I)cc1F`, the % of control in assay [5] stood at 46%; in assay [6], 93%.

In assay [7], `CN(C)CC#Cc1ccc2[nH]c3c(c2c1)-c1nc(N)ncc1CCC3` displayed an IC50 of 440 nM. This lies in the sub-micromolar range.

In the case of `CCc1cc(Nc2nccc(-c3c(-c4ccc(OC)c(C(=O)Nc5c(F)cccc5F)c4)nc4ccccn34)n2)c(OC)cc1N1CCC(N2CCN(S(C)(=O)=O)CC2)CC1`, in assay [8], the IC50 is greater than 3000 nM.

As for `CC[C@@H]1[C@H](F)C(=O)N[C@@H]1COc1nccc2cc(C(N)=O)c(OC)cc12` [ZIMLOVISERTIB], the % of inhibition in [9] turned out to be 2.16%.

In [10], `CN(C(=O)c1cnn2cccnc12)c1cc2c(cc1N1CCOCC1)C(=O)N(C[C@@H](F)C(C)(C)O)C2` registered a dTM of -0.1 K.

`COc1cc(Nc2nc(C)cc(-c3cnn4nc(OC)ccc34)n2)cc(C(F)(F)F)c1` gave a % of control in assay [11] of 83%.

Turning to `O[C@H]1CC[C@H](Nc2ncc3nc(Nc4c(F)cc(F)cc4F)n([C@H]4CCOC4)c3n2)CC1`, the % of control in [12] was found to be 100%.

In assay [13], `CCC(=O)N1CCN(c2ccc(-n3c(=O)ccc4cnc5ccc(-c6cnc7ccccc7c6)cc5c43)cc2C(F)(F)F)CC1` gave a % of control of 85%.

On to `Nc1cnc(N2CCc3cc(S(=O)(=O)Nc4c(F)cc(Cl)cc4F)cc(N4CCCC4=O)c32)nc1` [TP-020n], for which the % of control in assay [14] is 90%.

For the compound `C=CC(=O)Nc1ccc(C(=O)Nc2[nH]nc3c2CN(C(=O)N[C@H](CN(C)C)c2ccccc2)C3(C)C)cc1`, in assay [15], the % of engagement is -12.8%.
